Experimental data as given in ChEMBL document CHEMBL3351433, “Synthesis and evaluation of new 3-phenylcoumarin derivatives as potential antidepressant agents” (Bioorg Med Chem Lett, 2014).

Tests used:
Mus musculus [1] = assay: Antidepressant activity in Swiss mouse assessed as reduction of immobility time at 0.5 mg/kg, ip after 30 mins by forced swimming test relative to vehicle-treated control; type: functional; design: scale not given: the % may be the effect or the level left; settings: route intraperitoneal
Mus musculus [2] = assay: Antidepressant activity in Swiss mouse assessed as reduction of immobility time at 0.25 mg/kg, ip after 30 mins by forced swimming test relative to vehicle-treated control; type: functional; design: scale not given: the % may be the effect or the level left; settings: route intraperitoneal
Mus musculus [3] = assay: Antidepressant activity in Swiss mouse assessed as reduction of immobility time at 1 mg/kg, ip after 30 mins by forced swimming test relative to vehicle-treated control; type: functional; design: scale not given: the % may be the effect or the level left; settings: route intraperitoneal
Mus musculus [4] = assay: Antidepressant activity in Swiss mouse assessed as reduction of immobility time at 0.5 mg/kg, ip by tail suspension test relative to vehicle-treated control; type: functional; design: scale not given: the % may be the effect or the level left; settings: route intraperitoneal
Mus musculus [5] = assay: Toxicity in Swiss mouse assessed as horizontal activity count at 0.5 mg/kg, ip after 30 mins measured for 120 mins by open field locomotor activity test; type: organism-based; design: dose 0.5 mg/kg, route intraperitoneal; settings: in vivo
Mus musculus [6] = species: Mus musculus; assay: Toxicity in Swiss mouse assessed as effect on neuro-muscular coordination after 30 to 180 mins by rotarod test; type: organism-based; settings: in vivo
Mus musculus [7] = assay: Toxicity in Swiss mouse assessed as total distance travelled at 0.5 mg/kg, ip after 30 mins measured for 120 mins by open field locomotor activity test; type: organism-based; design: dose 0.5 mg/kg, route intraperitoneal; settings: in vivo, 2 h
[8] = Cmax in Swiss albino mouse at 1 mg/kg, iv; type: ADME, organism-based; design: dose 1 mg/kg, route intravenous; settings: in vivo
[9] = AUC (0 to infinity) in Swiss albino mouse at 1 mg/kg, iv; type: ADME, organism-based; design: time infinity, dose 1 mg/kg, route intravenous; settings: plasma
[10] = Volume of distribution in Swiss albino mouse at 1 mg/kg, iv; type: ADME, organism-based; design: dose 1 mg/kg, route intravenous; settings: in vivo
[11] = Clearance in Swiss albino mouse at 1 mg/kg, iv; type: ADME, organism-based; design: dose 1 mg/kg, route intravenous; settings: in vivo
[12] = Terminal half life in Swiss albino mouse at 1 mg/kg, iv; type: ADME, organism-based; design: dose 1 mg/kg, route intravenous; settings: in vivo, read-out: beta t1/2 (converted)
[13] = Cmax in Swiss albino mouse at 10 mg/kg, ip; type: ADME, organism-based; design: dose 10 mg/kg, route intraperitoneal; settings: in vivo
[14] = Tmax in Swiss albino mouse at 10 mg/kg, ip; type: ADME, organism-based; design: dose 10 mg/kg, route intraperitoneal; settings: in vivo
[15] = AUC (0 to infinity) in Swiss albino mouse at 10 mg/kg, ip; type: ADME, organism-based; design: time infinity, dose 10 mg/kg, route intraperitoneal; settings: plasma
Mus musculus [16] = assay: Volume of distribution in Swiss albino mouse at 10 mg/kg, ip; type: ADME, organism-based; design: dose 10 mg/kg, route intraperitoneal; settings: in vivo
[17] = Clearance in Swiss albino mouse at 10 mg/kg, ip; type: ADME, organism-based; design: dose 10 mg/kg, route intraperitoneal; settings: in vivo
[18] = Terminal half life in Swiss albino mouse at 10 mg/kg, ip; type: ADME, organism-based; design: dose 10 mg/kg, route intraperitoneal; settings: in vivo, read-out: beta t1/2 (converted)
[19] = Bioavailability in Swiss albino mouse at 10 mg/kg, ip; settings: in vivo, intraperitoneal
[20] = Oral bioavailability in rat; type: ADME, organism-based; settings: in vivo

SMILES	Activity (Mus musculus [1])	Activity (Mus musculus [2])	Activity (Mus musculus [3])	Activity (Mus musculus [4])	Activity (Mus musculus [5])	Activity (Mus musculus [6])	Activity (Mus musculus [7])	also measured
COc1ccc(-c2cc3cc(CO)cc(C(C)(C)C)c3oc2=O)cc1OC	58%	–	–	–	–	–	–	–
COc1ccc(-c2cc3cc(CBr)cc(C)c3oc2=O)cc1OC	61%	–	–	–	–	–	–	–
COc1cc(-c2cc3cc(CBr)cc(C)c3oc2=O)cc(OC)c1OC	73%	16%	71%	49%	Non-toxic	Non-toxic	Non-toxic	–
COc1ccc(-c2cc3cc(CBr)cc(C(C)(C)C)c3oc2=O)cc1OC	55%	–	–	–	–	–	–	–
COc1ccc(-c2cc3cc(CNc4ccc(C)cc4)cc(C)c3oc2=O)cc1	80%	17%	75%	53%	Non-toxic	Non-toxic	Non-toxic	Cmax [8]: 0.105 µg/mL; AUC(0-inf) [9]: 0.316 µg·h/mL; Vd [10]: 18 L/kg; clearance [11]: 4.04 L/h/kg; half-life [12]: 3.21 h; Cmax [13]: 0.256 µg/mL; Tmax [14]: 2 h; AUC(0-inf) [15]: 2.33 µg·h/mL; Vd (Mus musculus [16]): 30.45 L/kg; CL/F [17]: 2.83 L/h/kg; half-life [18]: 7.57 h; bioavailability [19]: 73.4%
CNCCC(Oc1ccc(C(F)(F)F)cc1)c1ccccc1 (stereo not given) [FLUOXETINE]	–	–	–	–	–	–	–	bioavailability [20]: 60%
